Assay results taken from US12441704B2, “Compounds active towards nuclear receptors” (NUEVOLUTION A/S, priority 2019, dated 2025).
Like-named read-outs stand apart in the source and are kept apart here.

Tests used:
Th17 cells = assay: Th17 Assay (IL-17 levels in supernatants of differentiating Th17 cells); type: cell-based; conditions: 168 h; human naive CD4+ T cells differentiated to Th17 for seven days; IL-17 in supernatants by ELISA
Procedure: The following modifications were made to the manufacturer's protocol: 1) Incubation with Biotin-Antibody Cocktail and Anti-Biotin MicroBeads was prolonged to 30 minutes, and 2) Cells were washed with 40 mL of Miltenyi buffer. […] Test compounds were tested in triplicates, diluted 1000-fold in medium (final DMSO concentration is 0.1%). Incubated for seven days at 37° C., 5% CO2, 95% humidity, and 2-fluoro-4′-[[4-(4-pyridinylmethyl)-1-piperazinyl]methyl]-α,α-bis(trifluoromethyl)-[1,1′-biphenyl]-4-methanol (SR2211 Calbiochem, Cat. No. 557353) was used as positive control. As negative control, cells were differentiated into Th0 using 5 μg/ml anti-CD28 (BD Pharmingen), 10 ng/ml IL-2 (R&D Systems), 2 μg/ml anti-ILA (R&D Systems) and 2 μg/ml anti-IFNγ (R&D Systems) are negative control. IL-17 levels in supernatants were measured with ELISA (R&D Systems).

[1] = target: T1, RORγ ligand-binding domain fused to Gal4 (Homo sapiens, UniProt P51449); assay: RORγ Reporter Assay (Gal4); type: cell-based; conditions: compounds of the present disclosure, read-out: Gal4 assay EC50
T1 construct: Gal4 (galactose-responsive transcription factor); expressed in transfected cells; host or cells: HEK293
T1 sequence (P51449 269-508 limits assumed): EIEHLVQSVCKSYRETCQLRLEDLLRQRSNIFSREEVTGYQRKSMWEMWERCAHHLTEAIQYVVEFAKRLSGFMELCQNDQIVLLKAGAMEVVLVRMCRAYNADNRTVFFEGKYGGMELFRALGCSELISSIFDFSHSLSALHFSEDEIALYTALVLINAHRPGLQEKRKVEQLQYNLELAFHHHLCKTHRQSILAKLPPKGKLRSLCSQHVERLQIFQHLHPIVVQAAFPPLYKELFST
Outline: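 HEK293 cells transiently co-transfected with the Gal4-fused RORγ LBD and a UAS-luciferase reporter were exposed to compounds for 24 h at 37 °C (0.1% DMSO final). Luminescence was read, and percent reduction of RORγ activity was calculated relative to vehicle-average RLU.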

[2] = tested on: Collagen-induced arthritis; assay: Collagen-induced arthritis (CIA) study; type: in vivo; conditions: 3 mpk p.o. b.i.d.; DBA/1J mice
Procedure: Collagen-induced arthritis is an animal model of rheumatoid arthritis used to evaluate the efficacy of test compounds. CIA was induced at Washington Biotechnology Inc. (Baltimore) in male DBA/1J mice (Jackson Laboratories) by subcutaneous injection at the base of the tail with 50 μl of a bovine collagen/complete Freund's adjuvant emulsion. After 21 days, the mice were further boosted by a further subcutaneous injection of 50 μl of a collagen/incomplete Freund's adjuvant emulsion. For treatment, compound or vehicle (2% DMSO, 10% HP-β-CD in MilliQ water) was given orally twice daily at various doses selected from 3, 10, 30 mg/kg, beginning at the day of CIA induction (Prophylactic setting), or after disease initiation (at day 27, therapeutic setting). Treatment lasted until day 41, and the animals were scored three times weekly. Each paw was scored and the sum of all four scores was recorded as the Arthritic Index (AI). The maximum possible AI was 16. 0=no visible effects of arthritis; 1=edema and/or erythema of one digit; 2=edema and/or erythema of 2 joints; 3=edema and/or erythema of more than 2 joints; 4=severe arthritis of the entire paw and digits including limb deformation and ankylosis of the joint. The Arthritis Index for each treatment can be expressed as the mean score for each treatment group+/−S.E.M.

[3] = tested on: IL-17A secretion in activated PBMCs; assay: IL-17A secretion in activated PBMCs; type: cell-based, human; conditions: human PBMCs stimulated with CD3/CD28 Dynabeads for 48 h, absolute IC50
Outline: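 Human PBMCs from healthy donors, 40,000 cells/well, were preincubated 30 min with compound in 10-point 5-fold dilutions (0.1% DMSO), then stimulated 48 h at 37° C with CD3/CD28 beads (1:1). Supernatant IL-17A was read by bead immunoassay on a flow cytometer. Inhibition was normalized to activated DMSO (top) and GNE09461 10 μM (basal).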

plasma IL-17A = assay: In vivo IL-17A induction in anti-CD3 model in mice; conditions: oral gavage twice daily day 0 to day 3, C57BL/6JRj mice
Procedure: Male C57BL/6JRj mice (7 week old) were purchased from Janvier Labs and housed at the animal facilities of Almirall throughout the study. Animals were allowed to condition for 5 days in their new environment at 22° C.±2° C., 55%±10% relative humidity and 12 h: 12 h light:dark cycles. Animals were housed in polycarbonate cages, with free access to water and non-purified stock diet (2014 Teklad Global 14% Protein Rodent Maintenance Diet, Envigo) during the full course of the studies. Care of animals was undertaken in compliance with the European Committee Directive 2010/63/EU, and the Catalan and Spanish law. All procedures were performed according to the ARRIVE guidelines (Animal Research: Reporting of In Vivo Experiments) and with approval from the Animal Experimentation Ethical Committee of Almirall (Barcelona, Spain).
Mice were injected intraperitoneally with 7.5 μg of anti-CD3e (Clone 145-2C11 from Pharmingen BD) at 0 h (day 0) and […] (day 3) time-points. The non-induced-group were injected with PBS instead of anti-CD3e. At study completion (4 h after anti-CD3e injection), animals were anaesthetized with isofluorane (Baxter) and 0.5-1 mL blood samples were drawn by intracardiac puncture in heparinized tubes. Plasma samples were stored at −80° C. for subsequent analysis.
Test compounds were freshly suspended in sterile 0.5% methylcellulose 0.1% tween-80 solution (10 mL/kg body weight). […]
Plasma levels of IL-17A were measured by ELISA (R&D Systems) according to the manufacturer's instruction. Results were calculated as the percentage of reduction of plasma IL-17A versus the difference between non-induced and anti-CD3e induced groups through the formula: inhibition=100*[1−[(x−mean non-induced)/(mean control vehicle−mean non-induced)]]. The IL-17A inhibition for each treatment can be expressed as the mean for each treatment group±S.E.M. Statistical analysis of data were conducted with one-way ANOVA followed by Dunnett's multiple comparisons test when appropriate. […]

## NC(=O)CN1CCC(CNc2ncnc(N(Cc3ccc(C(F)(F)F)cn3)C3CC3)c2F)C(F)(F)C1 (single isomer, unassigned) [Example A7-03-1]
Th17 cells
  EC50: 83 nM
[1]; value from Table 2 herein
  EC50: < 100 nM

## NC(=O)CN1CC[C@@H](CNc2ncnc(N(Cc3ccc(C(F)(F)F)cc3)C3CC3)c2F)[C@H](O)C1 (single isomer, unassigned) [Example A7-01-1]
[2]
  reduction in AI (Arthritic Index) as compared to the anti-IL-17A antibody: 74%
[3]; Homo sapiens, PBMC, 48 h
  IC50: 6.3 nM
Plasma IL-17A
  Inhibition of IL-17A (%) at 3 mg/kg: 80%
[1]; source: Table 2 herein
  EC50: < 100 nM

## CCN(Cc1ccc(C(F)(F)F)cc1)c1ncnc(NC[C@]2(O)CCN(CC(N)=O)C[C@H]2O)c1F (single isomer, unassigned) [Example D5-01-1-1]
[3]
  IC50: 1.9 nM
Plasma IL-17A
  Inhibition of IL-17A (%) at 3 mg/kg: 92%

## CCN(Cc1ccc(C(F)(F)F)cc1F)c1ncnc(NC[C@]2(O)CCN(CC(N)=O)C[C@H]2O)c1F (single isomer, unassigned) [Example D5-03-1-1]
[3]; Homo sapiens, PBMC, 48 h
  IC50: 3 nM
Plasma IL-17A
  Inhibition of IL-17A (%) at 3 mg/kg: 93%
